ChEMBL document CHEMBL1697781, “Assessment of the health effects of chemicals in humans: II. Construction of an adverse effects database for QSAR modeling” (Curr Drug Discov Technol, 2004)

Test system: Hepatotoxicity
Assay: FDA HLAED, gamma-glutamyl transferase (GGT) increase
Conditions: human
For GGT Increase - Index Value in this document: reference of the scale not given here.
For LDH Increase - Index Value in this document: reference of the scale not given here.

SMILES | GGT Increase - Activity Score | GGT Increase - Index Value | GGT Increase - Number of Reports
CO/N=C(\C(=O)N[C@@H]1C(=O)N2C(C(=O)O)=C(CSc3nc(=O)c(=O)[nH]n3C)CS[C@H]12)c1csc(N)n1 [CEFTRIAXONE] | Inactive | 2.6 | >= 4
CO/N=C(\C(=O)N[C@@H]1C(=O)N2C(C(=O)OC(C)OC(C)=O)=C(COC(N)=O)CS[C@H]12)c1ccco1 (some centres undefined) [CEFUROXIME AXETIL] | Inactive | 0 | < 4
CO/N=C(/C(=O)N[C@@H]1C(=O)N2C(C(=O)OC(C)OC(=O)C(C)(C)OC)=C(COC(N)=O)CS[C@H]12)c1ccco1 (some centres undefined) [CEFUROXIME PIVOXETIL] | Inactive | 0 | < 4

Test system: Hepatotoxicity
Assay: FDA HLAED, lactate dehydrogenase (LDH) increase
Conditions: human

SMILES | LDH Increase - Activity Score | LDH Increase - Index Value | LDH Increase - Number of Reports
CO/N=C(\C(=O)N[C@@H]1C(=O)N2C(C(=O)O)=C(CSc3nc(=O)c(=O)[nH]n3C)CS[C@H]12)c1csc(N)n1 [CEFTRIAXONE] | Inactive | 1.9 | >= 4
CO/N=C(\C(=O)N[C@@H]1C(=O)N2C(C(=O)OC(C)OC(C)=O)=C(COC(N)=O)CS[C@H]12)c1ccco1 (some centres undefined) [CEFUROXIME AXETIL] | Inactive | 0 | < 4
CO/N=C(/C(=O)N[C@@H]1C(=O)N2C(C(=O)OC(C)OC(=O)C(C)(C)OC)=C(COC(N)=O)CS[C@H]12)c1ccco1 (some centres undefined) [CEFUROXIME PIVOXETIL] | Inactive | 0 | < 4

Test system: Hepatotoxicity
Assay: FDA HLAED, serum glutamic pyruvic transaminase (SGPT) increase
Conditions: human

SMILES | SGPT Increase - Activity Score | SGPT Increase - Index Value | SGPT Increase - Number of Reports
CO/N=C(\C(=O)N[C@@H]1C(=O)N2C(C(=O)O)=C(CSc3nc(=O)c(=O)[nH]n3C)CS[C@H]12)c1csc(N)n1 [CEFTRIAXONE] | Marginally Active | 3.8 | >= 4
CO/N=C(\C(=O)N[C@@H]1C(=O)N2C(C(=O)OC(C)OC(C)=O)=C(COC(N)=O)CS[C@H]12)c1ccco1 (some centres undefined) [CEFUROXIME AXETIL] | Inactive | 0 | < 4
CO/N=C(/C(=O)N[C@@H]1C(=O)N2C(C(=O)OC(C)OC(=O)C(C)(C)OC)=C(COC(N)=O)CS[C@H]12)c1ccco1 (some centres undefined) [CEFUROXIME PIVOXETIL] | Inactive | 0 | < 4

Test system: Hepatotoxicity
Assay: FDA HLAED, liver enzyme composite activity
Conditions: human

SMILES | Composite Activity - Active | Composite Activity - Marginal | Composite Activity - Score
CO/N=C(\C(=O)N[C@@H]1C(=O)N2C(C(=O)O)=C(CSc3nc(=O)c(=O)[nH]n3C)CS[C@H]12)c1csc(N)n1 [CEFTRIAXONE] | 0 | 3 | Inactive
CO/N=C(\C(=O)N[C@@H]1C(=O)N2C(C(=O)OC(C)OC(C)=O)=C(COC(N)=O)CS[C@H]12)c1ccco1 (some centres undefined) [CEFUROXIME AXETIL] | 0 | 0 | Inactive
CO/N=C(/C(=O)N[C@@H]1C(=O)N2C(C(=O)OC(C)OC(=O)C(C)(C)OC)=C(COC(N)=O)CS[C@H]12)c1ccco1 (some centres undefined) [CEFUROXIME PIVOXETIL] | 0 | 0 | Inactive

Test system: Hepatotoxicity
Assay: FDA HLAED, alkaline phosphatase increase
Conditions: human

SMILES | Alkaline Phosphatase Increase - Activity Score | Alkaline Phosphatase Increase - Index Value | Alkaline Phosphatase Increase - Number of Reports
CO/N=C(\C(=O)N[C@@H]1C(=O)N2C(C(=O)O)=C(CSc3nc(=O)c(=O)[nH]n3C)CS[C@H]12)c1csc(N)n1 [CEFTRIAXONE] | Marginally Active | 3.4 | >= 4
CO/N=C(\C(=O)N[C@@H]1C(=O)N2C(C(=O)OC(C)OC(C)=O)=C(COC(N)=O)CS[C@H]12)c1ccco1 (some centres undefined) [CEFUROXIME AXETIL] | Inactive | 0 | < 4
CO/N=C(/C(=O)N[C@@H]1C(=O)N2C(C(=O)OC(C)OC(=O)C(C)(C)OC)=C(COC(N)=O)CS[C@H]12)c1ccco1 (some centres undefined) [CEFUROXIME PIVOXETIL] | Inactive | 0 | < 4

Test system: Hepatotoxicity
Assay: FDA HLAED, serum glutamic oxaloacetic transaminase (SGOT) increase
Conditions: human

SMILES | SGOT Increase - Activity Score | SGOT Increase - Index Value | SGOT Increase - Number of Reports
CO/N=C(\C(=O)N[C@@H]1C(=O)N2C(C(=O)O)=C(CSc3nc(=O)c(=O)[nH]n3C)CS[C@H]12)c1csc(N)n1 [CEFTRIAXONE] | Marginally Active | 3.8 | >= 4
CO/N=C(\C(=O)N[C@@H]1C(=O)N2C(C(=O)OC(C)OC(C)=O)=C(COC(N)=O)CS[C@H]12)c1ccco1 (some centres undefined) [CEFUROXIME AXETIL] | Inactive | 0 | < 4
CO/N=C(/C(=O)N[C@@H]1C(=O)N2C(C(=O)OC(C)OC(=O)C(C)(C)OC)=C(COC(N)=O)CS[C@H]12)c1ccco1 (some centres undefined) [CEFUROXIME PIVOXETIL] | Inactive | 0 | < 4
